Laboratory results taken from ChEMBL document CHEMBL1137807, “A novel dimeric diterpene from Salvia prionitis” (J Nat Prod, 2001).
Activity calls are given as the source filed them. The calls are words filed in the database; no cut-off is given here.

Columns and labels:
Bel-7402 = test: Antitumor activity against human Bel7402 cells; format: functional, cell-based
HL-60 = test: Antitumor activity against human HL60 cells; format: functional, cell-based

In the case of `CC(C)c1cc2c(c(O)c1O)[C@@]1(C)CCCC(C)(C)C1=CC2=O`, the Activity (Bel-7402) is reported as “Active” and the Activity (HL-60) is reported as “Active”.

`CC(C)C1=CC2=C[C@H]3Oc4c(c(C(C)C)cc5c4[C@]4(C)CCCC(C)(C)C4=CC5=O)O[C@]34C(C)(C)CCC[C@@]4(C)C2=C(O)C1=O` was tested, and the Activity (Bel-7402) was “inactive” and the Activity (HL-60) was “inactive”.
